This note sets out measurements from patent US4229466A, “Sesquiterpene derivatives having anti-complementary activity” (Otsuka Pharmaceutical Co., Ltd., priority 1977, dated 1980).

Data set [1] concerns complement serum (guinea pig complement). As to the kind of experiment: Anti-complement activity: 50% inhibition of hemolysis of sensitized erythrocytes. The format is cell-based. Conditions: Cavia porcellus, Erythrocyte, 1 h, 37° C., 60 minutes, guinea pig complement diluted 150 times, OD413, read-out: Anti-Complement Activity Value (50% hemolysis inhibitory activity value). The procedure:
The anti-complement activity was measured and confirmed by the testing method described in Meneki Kagaku (Immuno-Chemistry), Yuichi Yamamura et al., Ed. pages 830-834, Asakura Shoten, Tokyo, Japan (1973). Specifically,a test tube was charged with 0.5 ml of an aqueous dispersion of each of the test compounds, 0.5 ml of sensitized erythrocytes (EA) containing 1×10^8 cells/ml, 1 ml of a 5-fold diluted solution of a Veronal buffer solution containing gelatin, Ca^++ and Mg^++ (GVB^++), and 0.5 ml of complement serum (guinea pig complement) diluted to 150 times with the GVB^++. The mixture was maintained hot at 37° C. for 60 minutes. Then, 5 ml of an ice-cold physiological saline solution was added thereto, and the mixture was centrifuged. […] The 50% hemolysis inhibitory activity value (γ/ml) measured by the above method is shown in Table 2 below for each test compound.

The subject of data set [2] is Heymann-type Nephritis. Briefly: Therapeutic effects on Heymann-type nephritis (proteinuria). Particulars: for amount of proteinurea, Average: average of 3 replications; for amount of proteinurea: individual replication. The format is in vivo, male Wistar rats. As to the method:
Male Wistar rats with a body weight of 180 to 200 g were used in the test. Rat kidney cortex was extracted, and homogenized with an equal quantity by volume of a physiological saline solution. The homogenate was centrifuged at 1500 G for 1 hour. The supernatant liquid was purified in accordance with the method of T. S. […] The resulting mixture was injected intraperitoneally into isologous rats in an amount of 0.5 ml per rat. […] (This period was about 6 to 8 weeks.) […] CP was used as a comparison compound, and physiological saline solution was used as a control. Three replications were conducted for each test compound.

Data set [3] is described as follows: Acute toxicity on intravenous administration to mice. Particulars: mouse, in vivo.
The test system of data set [4] is Nephrotoxin-Type Nephritis. As to the kind of experiment: Therapeutic effect on nephrotoxin-type nephritis (proteinuria). Particulars: for amount of proteinurea, Average: average of 3 replications; for amount of proteinurea, Average / amount of proteinurea: 7 days; for amount of proteinurea: individual replication. The format is in vivo, male Wistar rats. From the text: Rat nephrotoxin ("NT" for brevity) was obtained as described below. Rat kidney cortex was homogenized with an equal quantity of physiological saline. The homogenized mixture was mixed with Freund's complete adjuvant (a product of Difco Company) in a volume ratio of 1:1. Two milliliters of the resulting mixture was intramuscularly injected into a rabbit (body weight 3,100 g) to immunize the rabbit. A month and a half later, blood was taken from the heart of the rabbit and serum was obtained. The resulting serum was inactivated at 56° C. for 30 minutes, then salted out with a 40% saturated aqueous solution of ammonium sulfate, and fractionated. The γ-globulin (IgG) fraction was collected to obtain NT.
The evaluation was carried out using male Wistar rats with a body weight of 150 to 160 g with three replications for each test compound. The test compound was intraperitoneally administered once every 24 hours for seven days. One hour after the administration of the test compound on the third day, the NT was applied. The NT was intravenously injected in an amount of 1 ml at a tail vein of each rat. Chlorophyllin (CP) was used as a comparison compound, and physiological saline solution was used as a control.
The proteinuria level (total amount excreted into the urine over a 24 hour period) was measured using turbidometry employing bovine serum albumin as a control by means of sulfosalicylic acid.

[5] abbreviates: Before Administration, group of 3 mg per rat i.p.
Where [6] appears, read: Day 1, 3 mg per rat i.p. once a day, 7 days.
Where [7] appears, read: Day 4, 3 mg per rat i.p. once a day, 7 days.
The mark [8] stands for this setting: Day 7, 3 mg per rat i.p. once a day, 7 days.
The mark [9] stands for this setting: Day 14, 3 mg per rat i.p. once a day, 7 days.
Setting [10] is: Day 21, 3 mg per rat i.p. once a day, 7 days.
The mark [11] stands for this setting: Day 1, 3 mg per rat i.p. once daily.
The mark [12] stands for this setting: Day 4, 3 mg per rat i.p. once daily.
The mark [13] stands for this setting: Day 7, 3 mg per rat i.p. once daily.
Setting [14] is: Day 10, 3 mg per rat i.p. once daily.
Setting [15] is: Before Administration, group of 5 mg per rat i.p.
Where [16] appears, read: Day 1, 5 mg per rat i.p. once a day, 7 days.
The mark [17] stands for this setting: Day 4, 5 mg per rat i.p. once a day, 7 days.
Setting [18] is: Day 7, 5 mg per rat i.p. once a day, 7 days.
[19] abbreviates: Day 14, 5 mg per rat i.p. once a day, 7 days.
[20] abbreviates: Day 21, 5 mg per rat i.p. once a day, 7 days.
The mark [21] stands for this setting: Day 1, 5 mg per rat i.p. once daily.
The mark [22] stands for this setting: Day 4, 5 mg per rat i.p. once daily.
[23] abbreviates: Day 7, 5 mg per rat i.p. once daily.
Setting [24] is: Day 10, 5 mg per rat i.p. once daily.

Structures are written as SMILES. “And” between values parts separate entries of the source, which are not always exact repeats. Equal values may be shown once.

Consider `CC1CCC2C(C)(C)C(O)C(O)CC2(C)C12Cc1c(O)cc(C=O)c(C=O)c1O2` (stereo not shown) [(1), 6,7-Dihydroxy-2,5,5,8a-tetramethyl-1,2,3,4,4a,5,6,7,8,8a-decahydronaphthalene-1-spiro-2'-(6',7'-diformyl-4'-hydroxy-2',3'-dihydrobenzofuran)], for which, in data set [1], the IC50 is 10 µg/mL. In addition, the “amount of proteinurea, Average” value in data set [2] (setting [5]) is 116 mg/day; in data set [2] (setting [6]), 111 mg/day; in data set [2] (setting [7]) it was 61 mg/day; in data set [2] (setting [8]), 26 mg/day; in data set [2] (setting [9]) it was 11 mg/day; in data set [2] (setting [10]), 10 mg/day. Moreover, the “amount of proteinurea, Average” value in data set [4] (setting [11]) was 2.8 mg/day; in data set [4] (setting [12]) it was 1.6 mg/day; in data set [4] (setting [13]), 1.2 mg/day; in data set [4] (setting [14]) it was 8 mg/day. The amount of proteinurea in data set [2] (setting [5]) is 95 mg/day and 132 mg/day and 121 mg/day; in data set [2] (setting [6]), 90 mg/day and 125 mg/day and 120 mg/day; in data set [2] (setting [7]), 47 mg/day and 65 mg/day and 70 mg/day; in data set [2] (setting [8]), 17 mg/day and 35 mg/day and 27 mg/day; in data set [2] (setting [9]) it was 9 mg/day and 15 mg/day and 10 mg/day; in data set [2] (setting [10]), 10 mg/day and 12 mg/day and 9 mg/day. The amount of proteinurea in data set [4] (setting [11]) was 2.5 mg/day and 4.3 mg/day and 1.7 mg/day; in data set [4] (setting [12]), 1.5 mg/day and 2.1 mg/day and 1.1 mg/day; in data set [4] (setting [13]), 0.8 mg/day and 1.8 mg/day and 0.9 mg/day; in data set [4] (setting [14]) it was 8 mg/day and 10 mg/day and 7 mg/day. Besides, in data set [3], the LD50 was 40 mg/kg.

For the compound `CC1CCC2C(C)(C)C(O)C(O)CC2(C)C12Cc1c(O)cc(C=C(C#N)C(=O)O)c(C=C(C#N)C(=O)O)c1O2` (stereo not shown) [(6), 6,7-Dihydroxy-2,5,5,8a-tetramethyl-1,2,3,4,4a,5,6,7,8,8a-decahydronaphthalene-1-spiro-2'-[6',7'-di-(2-cyano-2-carboxyvinyl)-4'-hydroxy-2',3'-dihydrobenzofuran]], the IC50 in data set [1] is 40 µg/mL. For the same compound, the “amount of proteinurea, Average” value in data set [2] (setting [15]) was 121 mg/day; in data set [2] (setting [16]), 116 mg/day; in data set [2] (setting [17]), 56 mg/day; in data set [2] (setting [18]), 37 mg/day; in data set [2] (setting [19]), 17 mg/day; in data set [2] (setting [20]) it was 12 mg/day. The “amount of proteinurea, Average” value worked out at 2.5 mg/day in data set [4] (setting [21]), 1.8 mg/day in data set [4] (setting [22]), 1.0 mg/day in data set [4] (setting [23]) and 10 mg/day in data set [4] (setting [24]). For the same compound, the amount of proteinurea in data set [2] (setting [15]) is 98 mg/day and 127 mg/day and 139 mg/day; in data set [2] (setting [16]) it was 113 mg/day and 121 mg/day and 116 mg/day; in data set [2] (setting [17]), 48 mg/day and 63 mg/day and 57 mg/day; in data set [2] (setting [18]) it was 36 mg/day and 47 mg/day and 29 mg/day; in data set [2] (setting [19]), 18 mg/day and 21 mg/day and 13 mg/day; in data set [2] (setting [20]), 8 mg/day and 15 mg/day and 14 mg/day. The amount of proteinurea in data set [4] (setting [21]) was 2.1 mg/day and 1.5 mg/day and 3.7 mg/day; in data set [4] (setting [22]), 1.9 mg/day and 1.2 mg/day and 2.3 mg/day; in data set [4] (setting [23]), 0.8 mg/day and 0.9 mg/day and 1.4 mg/day; in data set [4] (setting [24]) it was 13 mg/day and 7 mg/day and 9 mg/day. In data set [3], this compound had an LD50 of 250 mg/kg.

Regarding `CC1CCC2C(C)(C)C(O)C(O)CC2(C)C12Cc1c(O)cc(C=CC(=O)O)c(C=CC(=O)O)c1O2` (stereo not shown) [(7), 6,7-Dihydroxy-2,5,5,8a-tetramethyl-1,2,3,4,4a,5,6,7,8,8a-decahydronaphthalene-1-spiro-2'-[6',7'-di-(2-carboxyvinyl)-4'-hydroxy-2',3'-dihydrobenzofuran]], the IC50 in data set [1] came to 80 µg/mL. Also, the “activity of curing Heymann-type nephritis” value in data set [2] (test of Table 4, result in words) is listed as “a substantial activity of curing Heymann-type nephritis”. Also, the LD50 in data set [3] was 150 mg/kg. For the same compound, the “inhibition of the primary reaction of nephrotoxin-type nephritis” value in data set [4] (same test as Table 3, result in words) is “found to inhibit the primary reaction”.

Take `CC1CCC2C(C)(C)C(O)C(O)CC2(C)C12Cc1c(O)cc(C=O)c(C(=O)O)c1O2` (stereo not shown) [(67), Disodium 6,7-dihydroxy-2,5,5,8a-tetramethyl-1,2,3,4,4a,5,6,7,8,8a-decahydronaphthalene-1-spiro-2'-(7'carboxylate-6'-formyl-4'-oxide-2',3'-dihydrobenzofuran)]: in data set [1], the IC50 came out at 60 µg/mL. The “amount of proteinurea, Average” value was 118 mg/day in data set [2] (setting [15]); 117 mg/day in data set [2] (setting [16]); 59 mg/day in data set [2] (setting [17]); 30 mg/day in data set [2] (setting [18]); 14 mg/day in data set [2] (setting [19]); 11 mg/day in data set [2] (setting [20]). Besides, the “amount of proteinurea, Average” value was found to be 3.0 mg/day in data set [4] (setting [21]), 1.7 mg/day in data set [4] (setting [22]), 1.1 mg/day in data set [4] (setting [23]) and 9 mg/day in data set [4] (setting [24]). Also, the amount of proteinurea was 117 mg/day and 132 mg/day and 105 mg/day in data set [2] (setting [15]); 109 mg/day and 127 mg/day and 114 mg/day in data set [2] (setting [16]); 59 mg/day and 67 mg/day and 51 mg/day in data set [2] (setting [17]); 23 mg/day and 41 mg/day and 25 mg/day in data set [2] (setting [18]); 13 mg/day and 17 mg/day and 11 mg/day in data set [2] (setting [19]); 9 mg/day and 13 mg/day and 12 mg/day in data set [2] (setting [20]). Besides, the amount of proteinurea in data set [4] (setting [21]) was 2.7 mg/day and 4.1 mg/day and 2.3 mg/day; in data set [4] (setting [22]), 1.8 mg/day and 2.0 mg/day and 1.3 mg/day; in data set [4] (setting [23]) it was 0.7 mg/day and 1.5 mg/day and 1.2 mg/day; in data set [4] (setting [24]), 9 mg/day and 12 mg/day and 7 mg/day. The same compound showed an LD50 in data set [3] of 500 mg/kg.
